Test results taken from patent US7312237B2, “Combination of epothilone analogs and chemotherapeutic agents for the treatment of prolilferative diseases” (Bristol-Myers Squibb Co., priority 2001, dated 2007).
Values joined by “and” are separate entries in the source; they are usually repeats but may differ in a detail not shown here. Equal entries are not always repeated. “Also recorded” adds a separate entry of the source.

How the values were obtained:
[1] = tested on: tubulin isolated from calf brain; assay: Tubulin polymerization assay; format: biochemical
[2] = tested on: panel of tumor cell lines; assay: Oncology Diverse Cell Assay, panel of 21 cell lines; format: cell-based; settings: 18 of the 21 cell lines tested
Method: Bar graphs, on the right, depict the IC50 values of the cell lines listed on the left hand column (top to bottom).
(§1) The in vitro cytotoxicity was assessed in tumor cells by a tetrazolium-based colorimetric assay which takes advantage of the metabolic conversion of MTS (3-(4,5-dimethylthiazol-2-yl)-5-(3-carboxymethoxyphenyl)-2-(4-sulphenyl)-2H-tetrazolium, inner salt) to a reduced form that absorbs light at 492 nm. Cells were seeded 24 hr prior to drug addition. Following a 72 hour incubation at 37° C. with serially diluted compound, MTS, in combination with the electron coupling agent phenazine methosulfate, was added to the cells. The incubation was continued for 3 hours, then the absorbancy of the medium at 492 nm was measured with a spectrophotometer to obtain the number of surviving cells relative to control populations. The results are expressed as median cytotoxic concentrations (IC50 values).

[3] = In vivo antitumor testing, M5076 murine sarcoma; design: species or system mice; settings: (C57Bl/6×DBA/2)F1 hybrid, mouse, in vivo, iv, Compound 1 IV, read-out: OD (optimal dose or MTD)
Method: (§2) The murine fibrosarcoma M5076 was also employed.
(§3) The human tumors were maintained in Balb/c nu/nu nude mice. M5076 was maintained in C57BL/6 mice. Tumors were propagated as subcutaneous transplants in the appropriate mouse strain using tumor fragments obtained from donor mice.
(§4) All tumor implants for efficacy testing were subcutaneous (sc).
(§5) The MTD was frequently equivalent to OD. When death occurs, the day of death was recorded.
(§6) And, Log cell kill=T−C÷(3.32×TVDT)

[4] = tested on: M5076 murine fibrosarcoma; assay: In vivo antitumor testing, M5076 murine sarcoma; design: species or system mice
Method: as §2, §3, §4, §5, §6

[5] = tested on: HCT116 human colon carcinoma cell line; assay: Clonogenic cell colony-formation assay (single agent and combination, isobologram); format: cell-based; settings: concentration killing clonogenic HCT-116 cells by 90%
Excerpt: Analysis of the effects of combination treatment in vitro was by the isobologram and multiplicity methods described by Stephens and Steel
The success of an anticancer agent is dependent not only on its antitumor activity as a single agent but also on its ability to combine successfully with other antineoplastic drugs.

[6] = tested on: A2780Tax human ovarian carcinoma; settings: Expt. 12, IV q2dx5, OD 6.3 mg/kg
Excerpt: (§7) The following human tumors were used: A2780 ovarian, A2780Tax ovarian (established from cells obtained from Dr. Antonio Fojo, Medicine Branch, NCI, Bethesda, Md.), HCT116/VM46 colon, Pat-7 ovarian (established from a tumor biopsy provided by Dr. Thomas Hamilton, Fox Chase Cancer Center, Philadelphia, Pa.) from a patient who had developed resistance to TAXOL®). The murine fibrosarcoma M5076 was also employed.
The following tumors were passaged in the indicated host strain of mouse: murine M5076 fibrosarcoma (M5076) in C57Bl/6 mice; human A2780 and Pat-7 ovarian carcinomas, HCT116, HCT116/VM46 and LS174T colon carcinoma, Pat-21 breast carcinoma in nude mice. Tumor passage occurred biweekly for murine tumors and approximately every two to eight weeks for the various human tumor lines. With regard to efficacy testing, M5076 tumors were implanted in (C57Bl/6×DBA/2)F1 hybrid mice, and human tumors were implanted in nude mice. All tumor implants for efficacy testing were subcutaneous (sc). […]
Antitumor activity was evaluated at the maximum tolerated dose (MTD) which is defined as the dose level immediately […] which excessive toxicity (i.e. more than one death) occurred. […] When death occurs, the day of death was recorded. […]
To estimate tumor cell kill, the tumor volume doubling time was first calculated with the formula: […]

[7] = In vivo antitumor testing, HCT116 xenograft; design: species or system nude mice; settings: nude, mouse, in vivo, read-out: OD (optimal dose or MTD)
Method: as §4, §5, §6

[8] = tested on: HCT116 human colon carcinoma; assay: In vivo antitumor testing, HCT116 xenograft; design: species or system nude mice
Method: as §4, §5, §6

[9] = tested on: A2780 human ovarian carcinoma; assay: In vivo antitumor testing, A2780 in nude rats
Method: as §5, §6
A2780 grown in nude rats was also utilized.

[10] = in vivo; settings: nude, mouse, in vivo, iv, Compound 1 IV
Excerpt: as §7
(§8) The following tumors were passaged in the indicated host strain of mouse: murine M5076 fibrosarcoma (M5076) in C57Bl/6 mice; human A2780 and Pat-7 ovarian carcinomas, HCT116, HCT116/VM46 and LS174T colon carcinoma, Pat-21 breast carcinoma in nude mice. Tumor passage occurred biweekly for murine tumors and approximately every two to eight weeks for the various human tumor lines. With regard to efficacy testing, M5076 tumors were implanted in (C57Bl/6×DBA/2)F1 hybrid mice, and human tumors were implanted in nude mice. All tumor implants for efficacy testing were subcutaneous (sc).
(§9) The required number of animals needed to detect a meaningful response were pooled at the start of the experiment and each was given a subcutaneous implant of a tumor fragment (·50 mg) with a 13-gauge trocar. For treatment of early-stage tumors, the animals were again pooled before distribution to the various treatment and control groups. For treatment of animals with advanced-stage disease, tumors were allowed to grow to the predetermined size window (tumors outside the range were excluded) and animals were evenly distributed to various treatment and control groups. Treatment of each animal was based on individual body weight. Treated animals were checked daily for treatment related toxicity/mortality. Each group of animals was weighed before the initiation of treatment (Wt1) and then again following the last treatment dose (Wt2). The difference in body weight (Wt2−Wt1) provides a measure of treatment-related toxicity.
(§10) Tumor weights (mg) were estimated from the formula: Tumor weight=(length×width^2)÷2
(§11) Antitumor activity was evaluated at the maximum tolerated dose (MTD) which is defined as the dose level immediately […] which excessive toxicity (i.e. more than one death) occurred. […] When death occurs, the day of death was recorded.
(§12) Tumor response end-point was expressed in terms of tumor growth delay (T-C value), defined as the difference in time (days) required for the treated tumors (T) to reach a predetermined target size compared to those of the control group (C).
(§13) To estimate tumor cell kill, the tumor volume doubling time was first calculated with the formula:
(§14) TVDT=Median time (days) for control tumors to reach target size−Median time (days) for control tumors to reach half the target size
(§15) HCT116/VM46 is an MDR-resistant colon carcinoma developed from the sensitive HCT116 parent line.

[11] = tested on: HCT116/VM46 human colon carcinoma; assay: in vivo
Excerpt: as §7, §8, §9, §10, §11, §12, §13, §14, §15

[12] = tested on: MIP; assay: In vitro cytotoxicity (MTS assay), MIP; format: cell-based; settings: 72 h
Method: as §1

[13] = Stability as a function of pH; format: physicochemical; settings: neutral pH versus low pH
[14] = Expt. 52, IV q2dx5, OD 6.3 mg/kg
[15] = Expt. 52, IV q4dx3, OD 10 mg/kg
[16] = Expt. 52, IV q8dx2, OD 24 mg/kg
[17] = Expt. 52, PO q2dx5, OD 90 mg/kg

C/C(=C\c1csc(C)n1)[C@@H]1C[C@@H]2O[C@]2(C)CCC[C@H](C)[C@H](O)[C@@H](C)C(=O)C(C)(C)[C@@H](O)CC(=O)N1 (relative stereo) [Compound 1, [1S-[1R*,3R*(E),7R*,10S*,11R*,12R*,16S*]]-7,11-dihydroxy-8,8,10,12,16-pentamethyl-3-[1-methyl-2-(2-methyl-4-thiazolyl)ethenyl]-4-aza-17-oxabicyclo[14.1.0] heptadecane-5,9-dione]
Ratio of Polymerization Potency of Analog/Paclitaxel [1]: 0.4 | IC50 [2]: 1.4 to 6 nM | MTD ([3]; q2dx5): 8.4 mg/kg | MTD ([3]; q4dx3): 24 mg/kg | LCK (gross log cell kill) ([4]; Expt. 159, IV q2dx5, OD 8.4 mg/kg): 0.5 | LCK (gross log cell kill) ([4]; Expt. 162, IV q2dx5, OD 8.4 mg/kg): 0.7 | LCK (gross log cell kill) ([4]; Expt. 172, IV q4dx3, OD 24 mg/kg): 1.0 | IC90 [5]: ~7.5 nM | LCK (gross log cell kill) [6]: 2.5 | MTD ([7]; iv, Compound 1 IV, q2dx5): 6.3 mg/kg | MTD ([7]; iv, Compound 1 IV, q4dx3): 10 mg/kg | MTD ([7]; iv, Compound 1 IV, q8dx2): 24 mg/kg | MTD ([7]; po, Compound 1 PO, q2dx5): 90 mg/kg | LCK (gross log cell kill) [8, 14]: > 6.3 | cures/total [8, 14]: 4 of 8 and 4/8 | LCK (gross log cell kill) [8, 15]: > 6.3 | cures/total [8, 15]: 5 of 8 and 5/8 | LCK (gross log cell kill) [8, 16]: > 6.3 | cures/total [8, 16]: 8 of 8 and 8/8 | LCK (gross log cell kill) [8, 17]: >6.3 | cures/total [8, 17]: seven of eight; also recorded: (7/8) | MTD ([9]; Compound 1, every 2 days x5, nude rats): 1.2 mg/kg/inj | LCK ([9]; nude rats, every 2 days x5, MTD 1.2 mg/kg/inj): 0.3 | MTD ([10]; OD (optimal dose or MTD), q2dx5): 4.8 mg/kg | MTD ([10]; OD (optimal dose or MTD; maximum tolerated regimen), q4dx3): 15 mg/kg | OD (optimal dose or MTD) ([11]; Compound 1 IV, q2dx5): 6.3 mg/kg | OD (optimal dose or MTD; maximum tolerated regimen) ([11]; Compound 1 IV, q4dx3): 16 mg/kg | LCK (gross log cell kill) ([11]; Expt. 32, IV q2dx5, OD 4.8 mg/kg): 3.1 | LCK (gross log cell kill) ([11]; Expt. 33, IV q2dx5, OD 4.8 mg/kg): 1.3 | LCK (gross log cell kill) ([11]; Expt. 35, IV q2dx5, OD 6.3 mg/kg): 1.8 | LCK (gross log cell kill) ([11]; Expt. 35, IV q4dx3, OD 16 mg/kg): 2.0 | LCK of tumor response ([11]; FIG. 7, Compound 1 alone, 15 mg/kg iv, q4dx3): 1.6 LCK | tumor cure ([11]; FIG. 7, single agent treatment at maximum tolerated regimen): did not induce tumor cure | IC50 [12]: 24.8 nM | stability versus pH [13]: significantly more stable at neutral pH than at low pH
